Experimental data reported in ChEMBL document CHEMBL1201862, “PubChem BioAssay data set” (2004).
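Grown in 96-well plates, cells were treated for 48 hours with each compound at five concentrations. Insufficient inhibition: endpoint recorded as highest concentration tested. GI50 is the concentration that inhibits growth by half.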 Calls of active or inactive are those of the source. Cut-off read from the data, not from the text of the source: active = GI50 up to about 1.1 µM and inactive = higher.

Assays:
Experiment in all cases: inhibition of tumour cell growth, NCI panel, 48 h
SNB-19 = system: SNB-19
786-0 = system: 786-0
KM12 = system: KM12
SF-295 = system: SF-295
SN12C = system: SN12C
SK-MEL-28 = system: SK-MEL-28
RPMI-8226 = system: RPMI-8226
HCT-116 = system: HCT-116
UO-31 = system: UO-31
EKVX = system: EKVX
K562 = system: K562
UACC-257 = system: UACC-257
M19-MEL = system: M19-MEL
CAKI-1 = system: CAKI-1
Malme-3M = system: Malme-3M
UACC-62 = system: UACC-62
NCI-H522 = system: NCI-H522
CCRF-CEM = system: CCRF-CEM
NCI-H460 = system: NCI-H460
TK-10 = system: TK-10
LXFL 529 = system: LXFL 529
M14 = system: M14
OVCAR-5 = system: OVCAR-5
SNB-75 = system: SNB-75
SNB-78 = system: SNB-78
A498 = system: A498
HT-29 = system: HT-29
HOP-62 = system: HOP-62
IGROV-1 = system: IGROV-1
COLO 205 = system: COLO 205
KM-20L2 = system: KM-20L2
SK-MEL-2 = system: SK-MEL-2
XF498 = system: XF498
OVCAR-3 = system: OVCAR-3
A549 = system: A549
NCI-H23 = system: NCI-H23
DLD-1 = system: DLD-1
SW-620 = system: SW-620
MOLT-4 = system: MOLT-4
SK-MEL-5 = system: SK-MEL-5
OVCAR-8 = system: OVCAR-8
ACHN = system: ACHN
HCC 2998 = system: HCC 2998
OVCAR-4 = system: OVCAR-4
SF-539 = system: SF-539
SF-268 = system: SF-268
DMS-114 = system: DMS-114
SK-OV-3 = system: SK-OV-3
U-251 = system: U-251
RXF 393 = system: RXF 393
DMS-273 = system: DMS-273
NCI-H226 = system: NCI-H226
HOP-92 = system: HOP-92
SR = system: SR
HL-60 = system: HL-60
HCT-15 = system: HCT-15
HOP-18 = system: HOP-18

COc1cc2cccc(/N=C/c3c(Br)ccc(OC)c3OC(C)C)c2cc1OC
GI50 (SNB-19): > 100 µM (inactive) | GI50 (786-0): 26.5 µM (inactive) | GI50 (KM12): 30.8 µM (inactive) | GI50 (SF-295): 53.6 µM (inactive) | GI50 (SN12C): > 100 µM (inactive) | GI50 (SK-MEL-28): 41.6 µM (inactive) | GI50 (RPMI-8226): 22.1 µM (inactive) | GI50 (HCT-116): 31 µM (inactive) | GI50 (UO-31): 47.8 µM (inactive) | GI50 (EKVX): > 100 µM (inactive) | GI50 (K562): 27 µM (inactive) | GI50 (UACC-257): 35.2 µM (inactive) | GI50 (M19-MEL): 30.1 µM (inactive) | GI50 (CAKI-1): 27.9 µM (inactive) | GI50 (Malme-3M): 74.5 µM (inactive) | GI50 (UACC-62): 45.7 µM (inactive) | GI50 (NCI-H522): 30.5 µM (inactive) | GI50 (CCRF-CEM): 25.7 µM (inactive) | GI50 (NCI-H460): > 100 µM (inactive) | GI50 (TK-10): 70.8 µM (inactive) | GI50 (LXFL 529): 26.8 µM (inactive) | GI50 (M14): 27.1 µM (inactive) | GI50 (OVCAR-5): > 100 µM (inactive) | GI50 (SNB-75): 24.4 µM (inactive) | GI50 (SNB-78): 38.6 µM (inactive) | GI50 (A498): > 100 µM (inactive) | GI50 (HT-29): 32.2 µM (inactive) | GI50 (HOP-62): 53.2 µM (inactive) | GI50 (IGROV-1): 59.4 µM (inactive) | GI50 (COLO 205): > 100 µM (inactive) | GI50 (KM-20L2): > 100 µM (inactive) | GI50 (SK-MEL-2): > 100 µM (inactive) | GI50 (XF498): 56.9 µM (inactive) | GI50 (OVCAR-3): 33.7 µM (inactive) | GI50 (A549): 82.4 µM (inactive) | GI50 (NCI-H23): 50.1 µM (inactive) | GI50 (DLD-1): 23.8 µM (inactive) | GI50 (SW-620): 32.4 µM (inactive) | GI50 (MOLT-4): 28.3 µM (inactive) | GI50 (SK-MEL-5): 55.7 µM (inactive) | GI50 (OVCAR-8): 44.4 µM (inactive) | GI50 (ACHN): 70.3 µM (inactive) | GI50 (HCC 2998): 65.3 µM (inactive) | GI50 (OVCAR-4): 33 µM (inactive) | GI50 (SF-539): 50.6 µM (inactive) | GI50 (SF-268): 36 µM (inactive) | GI50 (DMS-114): 25.6 µM (inactive) | GI50 (SK-OV-3): > 100 µM (inactive) | GI50 (U-251): 32.8 µM (inactive)

CC(C)[C@H]1CO[C@]2(C)[C@@H]3CN(Cc4ccccc4)C[C@@H]3C(=O)N12
GI50 (SNB-19): > 100 µM (inactive) | GI50 (RXF 393): > 100 µM (inactive) | GI50 (786-0): > 100 µM (inactive) | GI50 (KM12): > 100 µM (inactive) | GI50 (DMS-273): > 100 µM (inactive) | GI50 (SF-295): > 100 µM (inactive) | GI50 (SN12C): > 100 µM (inactive) | GI50 (SK-MEL-28): > 100 µM (inactive) | GI50 (RPMI-8226): > 100 µM (inactive) | GI50 (NCI-H226): > 100 µM (inactive) | GI50 (HCT-116): > 100 µM (inactive) | GI50 (UO-31): > 100 µM (inactive) | GI50 (EKVX): > 100 µM (inactive) | GI50 (HOP-92): 74.5 µM (inactive) | GI50 (SR): > 100 µM (inactive) | GI50 (HL-60): > 100 µM (inactive) | GI50 (K562): > 100 µM (inactive) | GI50 (UACC-257): > 100 µM (inactive) | GI50 (M19-MEL): > 100 µM (inactive) | GI50 (CAKI-1): > 100 µM (inactive) | GI50 (Malme-3M): > 100 µM (inactive) | GI50 (UACC-62): > 100 µM (inactive) | GI50 (NCI-H522): > 100 µM (inactive) | GI50 (CCRF-CEM): > 100 µM (inactive) | GI50 (NCI-H460): > 100 µM (inactive) | GI50 (TK-10): > 100 µM (inactive) | GI50 (HCT-15): > 100 µM | GI50 (LXFL 529): > 100 µM (inactive) | GI50 (M14): > 100 µM (inactive) | GI50 (SNB-75): > 100 µM (inactive) | GI50 (HT-29): > 100 µM (inactive) | GI50 (HOP-62): > 100 µM (inactive) | GI50 (IGROV-1): > 100 µM (inactive) | GI50 (COLO 205): > 100 µM (inactive) | GI50 (KM-20L2): > 100 µM (inactive) | GI50 (SK-MEL-2): > 100 µM (inactive) | GI50 (OVCAR-3): > 100 µM (inactive) | GI50 (A549): > 100 µM (inactive) | GI50 (NCI-H23): > 100 µM (inactive) | GI50 (DLD-1): > 100 µM (inactive) | GI50 (SW-620): > 100 µM (inactive) | GI50 (MOLT-4): > 100 µM (inactive) | GI50 (SK-MEL-5): > 100 µM (inactive) | GI50 (OVCAR-8): > 100 µM (inactive) | GI50 (ACHN): > 100 µM (inactive) | GI50 (HOP-18): > 100 µM (inactive) | GI50 (OVCAR-4): > 100 µM (inactive) | GI50 (SF-539): > 100 µM (inactive) | GI50 (SF-268): > 100 µM (inactive) | GI50 (DMS-114): > 100 µM (inactive) | GI50 (SK-OV-3): > 100 µM (inactive) | GI50 (U-251): > 100 µM (inactive)
